According to patent publication US9284307B2, “Macrocyclic serine protease inhibitors” (Idenix Pharmaceuticals LLC, priority 2009, dated 2016):

Key:
[1] = test system: HCV genotype 1a H77 strain subgenomic luciferase replicon (H1a-luc) in Huh-7 cells; test: Luciferase replicon assay, genotype 1a (H1a-luc); format: cell-based; conditions: Hepatitis C virus, Huh-7, 72 h, read-out: EC50 Against Relpicon 1a
Description: (§1) The HCV luciferase replicon assay measures the ability of a test compound to inhibit HCV replication in cell culture after 3 days of treatment in a human hepatoma cell line (Huh-7) bearing a HCV replicon containing a luciferase-neomycin phosphotransferase fusion gene. The inhibition of HCV replication was measured by quantification of luciferase protein expression. Briefly, Huh-7 cells containing either the HCV genotype 1a H77 strain or genotype 1b Con1 strain subgenomic luciferase replicon (H1a-luc or Zluc, respectively) were grown in DMEM containing glucose, L-glutamine and sodium pyruvate, 10% fetal bovine serum (FBS), 100 IU/mL penicillin, 100 μg/mL streptomycin, 2 mM GlutaMAX, non-essential amino acids and 0.25 (H1a-luc) or 0.5 (Zluc) mg/mL G418. GlutaMAX was obtained from Invitrogen. Corp.; all other media reagents were obtained from Mediatech, Inc. For dose-response testing, the cells were seeded in 96-well plates at 1×10^4 (H1a-luc) or 7.5×10^3 (Zluc) cells/well in a volume of 50 μL, and incubated at 37° C./5% CO2. […] The assay plates were shaken for 3 minutes at room temperature and luciferase activity for each well was measured with a 1 sec read time on the Victor^3V multilabel counter using a 700 nm cut-off filter (Perkin Elmer). EC50 values were calculated from dose response curves from the resulting best-fit equations determined by Microsoft Excel and XLfit 4.1 software.

[2] = test system: HCV genotype 1b Con1 strain subgenomic luciferase replicon (Zluc) in Huh-7 cells; test: Luciferase replicon assay, genotype 1b (Zluc); format: cell-based; conditions: Hepatitis C virus, genotype 1b Con1 luciferase replicon (Zluc), 72 hours, read-out: EC50 Against Relpicon 1b
Description: as §1

[3] = Cytotoxicity evaluation (Cell Titer 96 AQueous One), Table 2; format: cell-based; conditions: human; cellular viability; cell line not given
Description: For cytotoxicity evaluation, H1a-luc or Zluc cells were treated with compounds as described above and cellular viability was monitored using the Cell Titer 96 AQueous One Solution Cell Proliferation Assay (Promega). Plates were then read at 490 nm in a Victor^3V 1420 multilabel counter (Perkin Elmer) and CC50 concentrations were determined using Microsoft Excel and XLfit 4.1 software.

CYP1A2 = target: T1, CYP1A2 (Homo sapiens, UniProt P05177); test: In vitro CYP450 inhibition screen, fluorogenic assay, CYP1A2; format: in vitro ADME; conditions: probe substrate 3-Cyano-7-Ethoxycoumarin; average of two independent experiments
T1 construct: purchased BD Bioscience 459500
Description: (§2) CYP1A2 (BD Bioscience Cat #459500), CYP2B6 (BD Bioscience cat #459220), and CYP3A4 (BD Bioscience Cat #459100) inhibition fluorogenic assays were performed according to the manufacturer's protocol. Test articles were prepared as 10 mM stock solutions in DMSO.
(§3) Data represent the average of two independent experiments. A represents inhibition of 5 to 10%. B represents inhibition of >10% to 20%. C represents inhibition of >20% to 30%. D represents inhibition of >30% to 40%. I represents an IC50 of 5 to 9 μM.

CYP2B6 = target: T2, CYP2B6 (Homo sapiens, UniProt P20813); test: In vitro CYP450 inhibition screen, fluorogenic assay, CYP2B6; format: in vitro ADME; conditions: probe substrate 7-Ethoxy-4-trifluoromethylcoumarin, average of two independent experiments
T2 construct: purchased BD Bioscience 459220
Description: as §2, §3

CYP2C8 = target: T3, CYP2C8 (Homo sapiens, UniProt P10632); test: In vitro CYP450 inhibition screen, luminogenic assay, CYP2C8; format: in vitro ADME; conditions: probe substrate Luciferin-ME, average of two independent experiments
T3 construct: purchased BD Bioscience
Description: (§4) CYP2C8, 2C9, 2C19 and 2D6 (BD Bioscience) inhibition luminogenic assay was performed as per the protocol provided by Promega (P450-Glo™ Assay Technical Bulletin #TB325, P450-Glo™ Screening Systems Technical Bulletin #TB340). Test articles were prepared as 10 mM stock solutions in DMSO.
as §3

CYP2C9 = target: T4, CYP2C9 (Homo sapiens, UniProt P11712); test: In vitro CYP450 inhibition screen, luminogenic assay, CYP2C9; format: in vitro ADME; conditions: CYP2C9 enzyme (BD Bioscience), probe substrate Luciferin-H, average of two independent experiments, read-out: IC50 (μM) or % Inhibition at 20 μM, CYP450 2C9
T4 construct: purchased BD Bioscience
Description: as §4, §3

CYP2C19 = target: T5, CYP2C19 (Homo sapiens, UniProt P33261); test: In vitro CYP450 inhibition screen, luminogenic assay, CYP2C19; format: in vitro ADME; conditions: probe substrate Luciferin-H EGE, average of two independent experiments, read-out: IC50 (μM) or % Inhibition at 20 μM, CYP450 2C19
T5 construct: purchased BD Bioscience
Description: as §4, §3

CYP2D6 = target: T6, CYP2D6 (Homo sapiens, UniProt P10635); test: In vitro CYP450 inhibition screen, luminogenic assay, CYP2D6; format: in vitro ADME; conditions: CYP2D6 enzyme (BD Bioscience), probe substrate Luciferin-ME EGE, average of two independent experiments, read-out: IC50 (μM) or % Inhibition at 20 μM, CYP450 2D6
T6 construct: purchased BD Bioscience
Description: as §4, §3

CYP3A4 = target: T7, CYP3A4 (Homo sapiens, UniProt P08684); test: In vitro CYP450 inhibition screen, fluorogenic assay, CYP3A4; format: in vitro ADME; conditions: probe substrate 7-Benzyloxy-trifluoromethylcoumarin, average of two independent experiments, read-out: IC50 (μM) or % Inhibition at 20 μM, CYP450 3A4
T7 construct: purchased BD Bioscience 459100
Description: as §2, §3

T5 sequence (P33261 whole entry): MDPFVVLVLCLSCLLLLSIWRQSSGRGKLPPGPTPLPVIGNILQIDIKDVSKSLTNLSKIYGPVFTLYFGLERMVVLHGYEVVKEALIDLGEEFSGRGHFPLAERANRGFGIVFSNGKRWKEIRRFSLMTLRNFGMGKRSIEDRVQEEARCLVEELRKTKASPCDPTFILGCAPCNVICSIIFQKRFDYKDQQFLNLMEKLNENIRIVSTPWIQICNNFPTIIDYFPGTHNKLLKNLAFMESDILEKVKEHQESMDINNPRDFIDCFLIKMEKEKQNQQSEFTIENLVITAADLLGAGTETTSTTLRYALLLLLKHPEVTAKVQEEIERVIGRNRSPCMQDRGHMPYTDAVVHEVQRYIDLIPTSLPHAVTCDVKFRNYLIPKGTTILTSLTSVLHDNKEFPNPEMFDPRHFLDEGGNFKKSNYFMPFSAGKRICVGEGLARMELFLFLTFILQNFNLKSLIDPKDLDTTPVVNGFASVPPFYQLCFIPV
T2 sequence (P20813 whole entry): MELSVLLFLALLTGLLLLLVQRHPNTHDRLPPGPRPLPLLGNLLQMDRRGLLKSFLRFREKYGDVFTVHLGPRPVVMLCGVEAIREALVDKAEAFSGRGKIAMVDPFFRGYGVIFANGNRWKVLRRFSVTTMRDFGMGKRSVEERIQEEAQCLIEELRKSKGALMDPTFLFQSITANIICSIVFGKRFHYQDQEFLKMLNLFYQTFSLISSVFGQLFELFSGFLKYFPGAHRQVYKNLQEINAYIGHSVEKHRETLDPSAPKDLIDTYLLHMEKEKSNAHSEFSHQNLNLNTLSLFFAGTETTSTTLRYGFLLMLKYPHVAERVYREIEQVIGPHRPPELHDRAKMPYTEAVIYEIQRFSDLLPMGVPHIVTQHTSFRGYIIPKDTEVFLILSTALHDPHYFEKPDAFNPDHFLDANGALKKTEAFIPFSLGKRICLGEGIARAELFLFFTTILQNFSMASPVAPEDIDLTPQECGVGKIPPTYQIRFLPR
T7 sequence (P08684 whole entry): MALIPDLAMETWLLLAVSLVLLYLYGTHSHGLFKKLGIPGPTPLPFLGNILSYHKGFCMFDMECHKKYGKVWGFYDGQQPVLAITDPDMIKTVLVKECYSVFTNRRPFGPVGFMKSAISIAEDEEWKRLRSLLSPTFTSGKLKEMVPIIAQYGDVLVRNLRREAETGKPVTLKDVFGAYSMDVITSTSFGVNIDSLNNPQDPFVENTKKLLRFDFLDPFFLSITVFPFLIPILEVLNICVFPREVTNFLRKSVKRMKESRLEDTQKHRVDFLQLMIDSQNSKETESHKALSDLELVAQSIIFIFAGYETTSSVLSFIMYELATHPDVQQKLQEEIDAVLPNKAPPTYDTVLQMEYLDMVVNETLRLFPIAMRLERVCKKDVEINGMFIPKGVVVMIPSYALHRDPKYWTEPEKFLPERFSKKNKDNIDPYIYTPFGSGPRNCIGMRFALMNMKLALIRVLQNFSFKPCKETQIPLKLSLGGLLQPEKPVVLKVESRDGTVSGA
T4 sequence (P11712 whole entry): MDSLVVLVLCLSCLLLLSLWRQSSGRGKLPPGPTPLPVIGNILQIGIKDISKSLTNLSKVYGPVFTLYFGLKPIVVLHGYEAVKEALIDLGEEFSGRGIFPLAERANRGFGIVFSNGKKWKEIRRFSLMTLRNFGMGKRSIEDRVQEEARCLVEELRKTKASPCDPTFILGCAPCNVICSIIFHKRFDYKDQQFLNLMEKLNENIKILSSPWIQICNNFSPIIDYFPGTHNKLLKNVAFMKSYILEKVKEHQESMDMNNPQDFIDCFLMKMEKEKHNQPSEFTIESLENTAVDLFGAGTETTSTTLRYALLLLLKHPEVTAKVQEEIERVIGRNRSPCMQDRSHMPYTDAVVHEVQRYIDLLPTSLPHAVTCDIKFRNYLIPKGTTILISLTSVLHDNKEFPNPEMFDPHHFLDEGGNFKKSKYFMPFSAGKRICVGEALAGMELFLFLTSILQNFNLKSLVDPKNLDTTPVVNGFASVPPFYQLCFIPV
T6 sequence (P10635 whole entry): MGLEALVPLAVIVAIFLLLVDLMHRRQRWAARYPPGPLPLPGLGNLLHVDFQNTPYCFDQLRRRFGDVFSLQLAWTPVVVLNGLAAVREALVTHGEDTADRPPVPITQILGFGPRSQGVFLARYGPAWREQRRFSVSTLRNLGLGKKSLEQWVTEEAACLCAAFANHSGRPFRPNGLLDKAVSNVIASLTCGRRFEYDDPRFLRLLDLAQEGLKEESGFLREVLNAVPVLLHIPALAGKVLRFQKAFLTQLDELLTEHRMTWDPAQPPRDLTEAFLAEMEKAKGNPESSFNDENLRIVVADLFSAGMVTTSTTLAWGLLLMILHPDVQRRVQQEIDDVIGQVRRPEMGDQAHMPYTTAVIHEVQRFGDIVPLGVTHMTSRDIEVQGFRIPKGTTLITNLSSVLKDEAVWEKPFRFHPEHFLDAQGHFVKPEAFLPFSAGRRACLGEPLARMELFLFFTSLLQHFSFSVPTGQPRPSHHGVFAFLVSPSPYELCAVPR
T3 sequence (P10632 whole entry): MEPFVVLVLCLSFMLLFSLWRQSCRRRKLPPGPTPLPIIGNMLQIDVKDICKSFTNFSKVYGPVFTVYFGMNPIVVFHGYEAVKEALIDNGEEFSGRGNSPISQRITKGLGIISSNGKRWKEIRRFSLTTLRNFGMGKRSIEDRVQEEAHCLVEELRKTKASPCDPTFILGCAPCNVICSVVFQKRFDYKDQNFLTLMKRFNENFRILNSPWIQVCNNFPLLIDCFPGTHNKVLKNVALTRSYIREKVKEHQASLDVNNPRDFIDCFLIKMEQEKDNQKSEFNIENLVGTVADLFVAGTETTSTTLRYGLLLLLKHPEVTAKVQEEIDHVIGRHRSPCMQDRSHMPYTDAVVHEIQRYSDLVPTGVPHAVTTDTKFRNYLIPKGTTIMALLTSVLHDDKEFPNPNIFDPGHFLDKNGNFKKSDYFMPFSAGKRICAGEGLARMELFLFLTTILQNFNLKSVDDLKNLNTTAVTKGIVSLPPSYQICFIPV
T1 sequence (P05177 whole entry): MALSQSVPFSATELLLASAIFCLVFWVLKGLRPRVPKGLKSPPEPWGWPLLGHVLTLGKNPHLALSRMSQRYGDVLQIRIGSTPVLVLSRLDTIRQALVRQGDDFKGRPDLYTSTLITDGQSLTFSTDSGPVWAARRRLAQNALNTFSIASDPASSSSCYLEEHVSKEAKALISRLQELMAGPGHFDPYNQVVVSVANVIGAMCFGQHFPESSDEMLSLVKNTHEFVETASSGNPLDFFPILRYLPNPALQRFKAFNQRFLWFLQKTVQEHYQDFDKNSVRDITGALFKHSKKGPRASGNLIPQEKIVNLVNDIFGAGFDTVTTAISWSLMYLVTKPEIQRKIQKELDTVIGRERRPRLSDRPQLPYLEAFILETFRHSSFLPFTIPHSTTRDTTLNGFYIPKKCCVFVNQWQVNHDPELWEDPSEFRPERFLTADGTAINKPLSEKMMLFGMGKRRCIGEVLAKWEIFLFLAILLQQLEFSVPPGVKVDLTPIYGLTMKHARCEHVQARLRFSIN

COc1ccc2c(O[C@H]3CC[C@H]4C(=O)N(C)CCCC/C=C\[C@@H]5C[C@@]5(C(=O)NS(=O)(=O)C5(C)CC5)NC(=O)[C@@H]4C3)cc(-c3nc(C(F)(F)F)cs3)nc2c1C [Compound 51]
EC50 [1]: < 1 µM
EC50 [2]: < 1 µM
CC50 at 72 h [3]: 10 to 75 µM
IC50 (μM) or % Inhibition at 20 μM, CYP450 1A2 (CYP1A2): No Inhibition
IC50 (μM) or % Inhibition at 20 μM, CYP450 2B6 (CYP2B6): No Inhibition
inhibition at 20 µM (CYP2C8; human, CYP2C8 enzyme (BD Bioscience), read-out: IC50 (μM) or % Inhibition at 20 μM, CYP450 2C8): 10 to 20%
inhibition at 20 µM (CYP2C9): 20 to 30%
IC50 (CYP2C19): 9 to 15 µM
inhibition at 20 µM (CYP2D6): 20 to 30%
IC50 (CYP3A4): 20 to 25 µM

C#Cc1csc(-c2cc(O[C@H]3CC[C@H]4C(=O)N(C)CCCC/C=C\[C@@H]5C[C@@]5(C(=O)NS(=O)(=O)C5(C)CC5)NC(=O)[C@@H]4C3)c3ccc(OC)c(C)c3n2)n1 [Compound 52, (1aR,3aR,5S,7aR,15aS,Z)-5-(2-(4-ethynylthiazol-2-yl)-7-methoxy-8-methylquinolin-4-yloxy)-9-methyl-N-(1-methylcyclopropylsulfonyl)-3,8-dioxo-1a,2,3,3a,4,5,6,7,7a,8,9,10,11,12,13,15a-hexadecahydro-1H-benzo[c]cyclopropa[g][1,6]diazacyclotetradecine-1a-carboxamide]
EC50 [1]: < 1 µM
EC50 [2]: < 1 µM
CC50 at 72 h [3]: > 75 µM
IC50 (μM) or % Inhibition at 20 μM, CYP450 1A2 (CYP1A2): No Inhibition
inhibition at 20 µM (CYP2B6; human, CYP2B6 enzyme (BD Bioscience cat #459220), probe 7-Ethoxy-4-trifluoromethylcoumarin, read-out: IC50 (μM) or % Inhibition at 20 μM, CYP450 2B6): 30 to 40%
IC50 (μM) or % Inhibition at 20 μM, CYP450 2C8 (CYP2C8): No Inhibition
inhibition at 20 µM (CYP2C9): 20 to 30%
IC50 (CYP2C19): 9 to 15 µM
inhibition at 20 µM (CYP2D6): 5 to 10%
IC50 (CYP3A4): 15 to 20 µM
